≈ marks a conversion by molar mass, not a printed value.
How the values were obtained:
[1] = system: Human colon carcinoma (HCT-116); assay: Cytotoxic screening; format: cell-based; conditions: HCT-116; for IC50: Homo sapiens, read-out: IC50 HCT-116
Procedure: (§1) Human colon carcinoma (HCT-116), human hepatocellular carcinoma (HEPG-2), adenocarcinomic human alveolar basal epithelial cell (A-549), and human breast adenocarcinoma (MCF-7) cell lines were obtained from the American Type Culture Collection (ATCC, Rockville, MD). The cells were grown on RPMI-1640 medium supplemented with 10 % inactivated fetal calf serum and 50 µg/ml gentamycin. The cells were maintained at 37 °C in a humidified atmosphere with 5 % CO2 and were subcultured two to three times a week. Potential cytotoxicity of the compounds was evaluated on tumor cells using the method of Gangadevi and Muthumary (2007[21]) (Klancnik et al., 2010[36]). The cells were grown as monolayers in growth RPMI-1640. The monolayers of 104 cells adhered at the bottom of the wells in a 96-well microtiter plate incubated for 24 h at 37 °C in a humidified incubator with 5 % CO2. The monolayers were then washed with sterile phosphate buffered saline (0.01 M pH 7.2) and simultaneously the cells were treated with 100 µL from different dilutions of tested sample in fresh maintenance medium and incubated at 37 °C. A control of untreated cells was made in the absence of tested sample. Positive controls containing doxorubicin were also tested as a reference drug for comparison. Six wells were used for each concentration of the test sample. Every 24 hours an observation under the inverted microscope was made. The number of the surviving cells was determined by staining the cells with crystal violet (Mosmann, 1983[42]; Gangadevi and Muthumary, 2007[21]) followed by cell lysing using 33 % glacial acetic acid and reading the absorbance at 590 nm using microplate reader (SunRise, TECAN, Inc, USA) after well mixing. The absorbance values from untreated cells were considered as 100 % proliferation. The number of viable cells was determined using microplate reader as previously mentioned before and the percentage of […] was calculated as [1-(ODt/ODc)] x 100 % where ODt is the mean optical density of wells treated with the tested sample and ODc is the mean optical density of untreated cells. The relation between surviving cells and drug concentration was plotted to get the survival curve of each tumor cell line after treatment with the specified compound. The 50 % inhibitory concentration (IC50), the concentration required to cause toxic effects in 50 % of intact cells, was estimated from graphic plots.
(§2) The in vitro cytotoxic activity was performed by MTT assay (Mosmann, 1983[42]; Alley et al., 1988[6]) against three human carcinoma cell lines: Human colon carcinoma (HCT-116), human breast adenocarcinoma (MCF-7), and human hepatocellular carcinoma (HEPG-2).

[2] = system: human breast adenocarcinoma (MCF-7); assay: Cytotoxic screening; format: cell-based; conditions: for IC50: Homo sapiens, MCF7, read-out: IC50 MCF-7
Procedure: as §1, §2

[3] = system: human hepatocellular carcinoma (HEPG-2); assay: Cytotoxic screening; format: cell-based; conditions: HepG2, read-out: IC50 HepG-2
Procedure: as §1, §2

Row | SMILES | IC50 [1] | IC50 [2] | IC50 [3] | melting point | IC50 HCT-116 [1] | IC50 MCF-7 ([2]; MCF-7)
1 | N#CC1=C(N)Oc2c(N)cc3ccccc3c2C1c1ccc(F)cc1F (stereo not shown) [4f, 3,5-Diamino-1-(2,4-difluoro-phenyl)-1H-benzo[f]chromene-2-carbonitrile] | 9.25 µg/mL (≈ 26.5 µM) | 6.38 µg/mL (≈ 18.3 µM) | 5.22 µg/mL (≈ 14.9 µM) | 282 °C |  | 
2 | O=c1[nH]cc(F)c(=O)[nH]1 [5-Flurouracil, reference compound] |  |  |  |  | 4.3 µg/mL (≈ 33.1 µM) | 3.9 µg/mL (≈ 30 µM)
3 | CC[C@]1(O)C[C@@H]2CN(CCc3c([nH]c4ccccc34)[C@@](C(=O)OC)(c3cc4c(cc3OC)N(C)[C@H]3[C@@](O)(C(=O)OC)[C@H](OC(C)=O)[C@]5(CC)C=CCN6CC[C@]43[C@@H]65)C2)C1 [Vinblastine, reference compound] | 2.6 µg/mL (≈ 3.21 µM) | 6.1 µg/mL (≈ 7.52 µM) | 4.6 µg/mL (≈ 5.67 µM) |  |  | 
4 | COc1cc(C2C(C#N)=C(N)Oc3c(N)cc4ccccc4c32)cc(OC)c1OC (stereo not shown) [4h, 3,5-Diamino-1-(3,4,5-trimethoxy-phenyl)-1H-benzo[f]chromene-2-carbonitrile] | 500 µg/mL (≈ 1240 µM) | 500 µg/mL (≈ 1240 µM) | 500 µg/mL (≈ 1240 µM) | 225 °C |  | 
5 | COc1cccc2c1C(=O)c1c(O)c3c(c(O)c1C2=O)C[C@@](O)(C(=O)CO)C[C@@H]3O[C@H]1C[C@H](N)[C@H](O)[C@H](C)O1 [Doxorubicin, reference compound] | 0.88 µg/mL (≈ 1.62 µM) | 1.02 µg/mL (≈ 1.88 µM) | 1.19 µg/mL (≈ 2.19 µM) |  |  | 
6 | N#CC1=C(N)Oc2c(N)cc3ccccc3c2C1c1ccsc1 (stereo not shown) [4i, 3,5-Diamino-1-thiophen-3-yl-1H-benzo[f]chromene-2-carbonitrile] | 500 µg/mL (≈ 1570 µM) | 386 µg/mL (≈ 1210 µM) | 188 µg/mL (≈ 589 µM) | 230 °C |  | 
7 | N#CC1=C(N)Oc2c(N)cc3ccccc3c2C1c1ccc(Cl)cc1Cl (stereo not shown) [4e, 3,5-Diamino-1-(2,4-dichloro-phenyl)-1H-benzo[f]chromene-2-carbonitrile] | 2 µg/mL (≈ 5.23 µM) | 1.5 µg/mL (≈ 3.92 µM) | 1 µg/mL (≈ 2.62 µM) | 278 °C |  | 
8 | N#CC1=C(N)Oc2c(N)cc3ccccc3c2C1c1cccc(C(F)(F)F)c1F (stereo not shown) [4g, 3,5-Diamino-1-(2-fluoro-3-trifluoromethyl-phenyl)-1H-benzo[f]chromene-2-carbonitrile] | 30 µg/mL (≈ 75.1 µM) | 53.5 µg/mL (≈ 134 µM) | 32.4 µg/mL (≈ 81.1 µM) | 202 °C |  | 

From PMC5547389, “Structure-activity relationships and molecular docking studies of chromene and chromene based azo chromophores: A novel series of potent antimicrobial and anticancer agents” (EXCLI Journal, 2017)
